Broadly, the IC50 is the concentration at which inhibition is half-maximal.

Here are results for three compounds from patent US6392025B1, “Human NHE3 protein and non-human cells expressing same” (Tranzmembrane, LLC, priority 1995, dated 2002).

Entries after “also recorded” stand apart in the source; their conditions may differ. Like-named read-outs stand apart in the source and are kept apart here.

In assay [1] the target is Rabbit NHE3 (Oryctolagus cuniculus, UniProt P26432). To be noted: read-out: Inhibition constants (IC50); cited from earlier work.
Assay [2] deals with T1, human NHE3 (Homo sapiens, UniProt P48764).
T1 construct: expressed in transfected cells; host or cells: PS120 (Na+/H+ exchanger deficient derivative of Chinese hamster lung fibroblast line CCL39), plasmid pEH3 (pECE vector)
T1 sequence (P48764 26-834): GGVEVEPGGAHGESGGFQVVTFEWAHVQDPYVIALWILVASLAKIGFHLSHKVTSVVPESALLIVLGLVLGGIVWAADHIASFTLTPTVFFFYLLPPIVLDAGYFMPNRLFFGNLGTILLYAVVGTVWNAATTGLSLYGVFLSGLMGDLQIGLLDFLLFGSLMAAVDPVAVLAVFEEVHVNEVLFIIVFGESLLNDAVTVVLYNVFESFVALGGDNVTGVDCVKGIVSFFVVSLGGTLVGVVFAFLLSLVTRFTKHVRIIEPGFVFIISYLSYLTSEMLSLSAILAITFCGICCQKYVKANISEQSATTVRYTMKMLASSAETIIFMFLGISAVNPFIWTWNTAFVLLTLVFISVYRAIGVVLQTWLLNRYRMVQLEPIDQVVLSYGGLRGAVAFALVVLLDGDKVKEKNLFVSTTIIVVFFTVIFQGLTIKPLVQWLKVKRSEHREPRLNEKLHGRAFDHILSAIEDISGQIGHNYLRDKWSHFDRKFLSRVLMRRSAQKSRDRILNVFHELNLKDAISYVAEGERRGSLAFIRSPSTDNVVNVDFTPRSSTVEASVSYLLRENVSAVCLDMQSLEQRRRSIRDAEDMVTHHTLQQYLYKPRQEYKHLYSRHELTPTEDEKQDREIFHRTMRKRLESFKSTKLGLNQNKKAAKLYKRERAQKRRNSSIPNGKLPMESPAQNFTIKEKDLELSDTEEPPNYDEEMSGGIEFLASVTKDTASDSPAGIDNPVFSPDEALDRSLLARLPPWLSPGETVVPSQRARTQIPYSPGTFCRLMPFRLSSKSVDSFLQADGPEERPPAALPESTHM
The experiment in a line: 22Na+ uptake in acid loaded HNHE3/PS120 cells. To be noted: 22Na+ 1 mM. In kind it is cell-based. As to the method:
Stably transfected HNHE3/PS 120 cells were grown to near confluency in 24-well plates. The cells were serum-starved for 24 hours to arrest growth. ^22Na^+ uptake (1 mM) was measured during the linear phase of uptake in the presence of 1 mM ouabain and various concentrations of potential inhibitors amiloride or ethylisopropylamiloride (EIPA) following acidification with NH4Cl prepulse, as detailed previously (30).
Human brush border epithelial Na^+/H^+ exchange has been characterized as being much less sensitive to inhibition by amiloride and its 5-amino-substituted analogues than basolateral and nonepithelial membrane Na^+/H^+ exchangers (10,24,36). Therefore we determined the quantitative sensitivity of HNHE3/PS120 cells to inhibition by amiloride and EIPA by ^22Na^+ uptake studies. The concentration dependence for amiloride and EIPA inhibition of the initial rate of ^22Na^+ uptake (1 mM) into acid loaded HNHE3/PS120 cells was determined.
Three independent experiments were performed. […] FIG. 6 provides curves are from a representative experiment. Each point represents the mean percent of control ^22Na^+ uptake of duplicate experiments for each concentration of inhibitor. The curves are nonlinear least squares fits of the data assuming a single binding site for the inhibition (GraphPAD Software, Inc., San Diego, Calif.).

For assay [3], the target named is Rat NHE3 (Rattus norvegicus, UniProt P26433). The note with it: read-out: Inhibition constants (IC50); cited from earlier work.
Assay [4] concerns the target T1, human NHE3. The experiment in a line: Na+/H+ exchange activity by BCECF fluorescence (pHi) in HNHE3/PS120 cells. In kind it is cell-based. As to the method:
HNHE3/PS120 cells were grown to 70-80% confluency on glass coverslips, serum starved overnight to arrest growth, washed with Na^+ medium (containing in mM: 130 NaCl, 5 KCl, 2 CaCl2, 1 MgSO4, 1 NaPO4, 25 glucose, 20 HEPES, pH 7.4) and loaded with the acetoxymethyl ester of 2′,7′-bis(2-carboxyethyl)-5-(and-6)carboxyfluorescein (BCECF) as previously discussed (31). Cells were washed with TMA medium (containing in mM: 130 tetramethylammonium-C1, 5 KCl, 2 CaCl2 1 MgSO4, 1 TMA-P04, 25 glucose, 20 HEPES, pH 7.4), mounted in a cuvette, and perfused at 37° C. Cells were acidified by perfusing with 30 mM NH4Cl prepulse followed by removal of NH4Cl with TMA medium. The cuvette was then perfused with Na^+ medium. […] Na^+/H^+ exchange was determined by multiplying the initial rate of Na^+ dependent alkalinization by intracellular buffering capacity, as described.
HNHE3/PS120 cells loaded with BCECF were acidified by NH4Cl prepulse.
Serum starved HNHE3/PS120 cells were acidified by a NH4Cl prepulse and allowed to recover in 130 mM Na^+ medium until steady-state pHi was obtained.

Setting [5] is: mean of three independent experiments, read-out: Inhibition constants (IC50) of 22Na+ uptake, mean.
Setting [6] is: single representative experiment, nonlinear least squares fit, read-out: IC50 of the representative curves (FIG. 6).

Sequence of Rat NHE3 (P26433 29-831): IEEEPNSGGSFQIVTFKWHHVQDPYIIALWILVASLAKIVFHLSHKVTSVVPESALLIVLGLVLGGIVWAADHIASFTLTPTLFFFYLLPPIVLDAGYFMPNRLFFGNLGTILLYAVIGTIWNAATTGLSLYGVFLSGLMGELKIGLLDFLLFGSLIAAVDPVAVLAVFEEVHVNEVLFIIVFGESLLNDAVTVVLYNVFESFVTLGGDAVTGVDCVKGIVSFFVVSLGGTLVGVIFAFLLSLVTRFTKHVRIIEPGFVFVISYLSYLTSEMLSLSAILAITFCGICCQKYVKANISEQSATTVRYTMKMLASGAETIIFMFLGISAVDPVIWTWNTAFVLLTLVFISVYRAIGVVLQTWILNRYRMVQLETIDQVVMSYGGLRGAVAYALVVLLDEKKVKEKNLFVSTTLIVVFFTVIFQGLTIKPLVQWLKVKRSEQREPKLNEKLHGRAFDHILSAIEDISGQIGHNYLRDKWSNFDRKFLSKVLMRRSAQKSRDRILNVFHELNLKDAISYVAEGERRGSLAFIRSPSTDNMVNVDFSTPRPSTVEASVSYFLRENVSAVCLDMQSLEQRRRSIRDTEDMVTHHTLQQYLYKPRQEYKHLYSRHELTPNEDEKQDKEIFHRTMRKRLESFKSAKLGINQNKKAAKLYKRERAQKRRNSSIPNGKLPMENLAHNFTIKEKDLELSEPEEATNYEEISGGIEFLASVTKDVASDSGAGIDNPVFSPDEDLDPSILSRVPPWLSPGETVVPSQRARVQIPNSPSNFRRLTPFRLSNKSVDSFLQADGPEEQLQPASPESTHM
Sequence of Rabbit NHE3 (P26432 30-832): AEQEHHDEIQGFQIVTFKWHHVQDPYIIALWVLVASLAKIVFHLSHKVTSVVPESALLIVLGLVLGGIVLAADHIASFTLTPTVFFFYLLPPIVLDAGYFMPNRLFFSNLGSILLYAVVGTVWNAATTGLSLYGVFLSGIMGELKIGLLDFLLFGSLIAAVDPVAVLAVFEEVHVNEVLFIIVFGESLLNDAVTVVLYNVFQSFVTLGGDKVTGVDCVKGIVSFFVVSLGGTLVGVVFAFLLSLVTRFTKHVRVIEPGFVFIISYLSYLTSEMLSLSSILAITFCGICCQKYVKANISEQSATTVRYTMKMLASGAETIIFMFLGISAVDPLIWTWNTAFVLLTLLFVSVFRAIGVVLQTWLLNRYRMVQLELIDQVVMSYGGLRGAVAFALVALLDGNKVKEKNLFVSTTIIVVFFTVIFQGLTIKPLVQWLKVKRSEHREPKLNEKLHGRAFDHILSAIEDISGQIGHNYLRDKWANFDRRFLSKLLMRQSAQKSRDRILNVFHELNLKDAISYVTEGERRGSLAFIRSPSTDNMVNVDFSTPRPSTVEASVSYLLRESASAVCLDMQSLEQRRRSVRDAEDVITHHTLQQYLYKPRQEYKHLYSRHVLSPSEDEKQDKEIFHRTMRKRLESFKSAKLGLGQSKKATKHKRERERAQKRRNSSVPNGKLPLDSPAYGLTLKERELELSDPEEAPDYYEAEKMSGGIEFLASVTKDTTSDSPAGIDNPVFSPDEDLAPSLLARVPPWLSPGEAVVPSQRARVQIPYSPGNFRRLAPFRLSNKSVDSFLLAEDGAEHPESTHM

Take `N=C(N)NC(=O)c1nc(Cl)c(N)nc1N` [Amiloride, amiloride]: the IC50 in assay [1] was 39 µM; in assay [2] (setting [5]), 49 µM; in assay [2] (setting [6]), 59 µM; in assay [3], 100 µM.
For the compound `CCN(c1nc(N)c(C(=O)NC(=N)N)nc1Cl)C(C)C` [Ethylisopropylamiloride, ethylisopropylamiloride], the IC50 in assay [1] is 8 µM; in assay [2] (setting [5]), 6.6 µM; in assay [2] (setting [6]), 8.8 µM; in assay [3], 2.4 µM.
With `CCCCCCCCCCCCCC(=O)O[C@@H]1[C@@H](C)[C@@]2(O)[C@@H](C=C(CO)C[C@]3(O)C(=O)C(C)=C[C@@H]23)[C@@H]2C(C)(C)[C@]12OC(C)=O` [PMA, phorbol 12-myristate 13-acetate], the “ΔpHi at steady state after addition” value in assay [4] (FGF 10 ng/ml (n=4) or PMA 1.0 μM (n=5), 130 mM Na+ medium, controls −0.006±0.012) is given as −0.052±0.006. In assay [4] (FGF 10 ng/ml or PMA 1.0 μM added at steady-state pHi), the “time to reach new steady state pHi (average)” value was “less than 2 min”. The “effect on human NHE3 Na+/H+ exchange activity (in words)” value in assay [4] (FGF 10 ng/ml, 8-bromo-cAMP 0.5 mM, PMA 1.0 μM, at steady-state pHi) is given as “inhibition of the transfected Na^+/H^+ exchanger; also recorded: inhibited”.
